Assay results from US7101902B2, “2-guanidinylimidazolidinedione compounds and methods of making and using thereof” (The United States of America as represented by the …, priority 2003, dated 2006).
“And” between values parts separate entries of the source, which are not always exact repeats. Equal values may be shown once. “Also recorded” adds a separate entry of the source.

Key:
P. cynomolgi sporozoites [1] = test: Oral causal prophylactic assay in Rhesus monkey (compound 3 IM; 4b and 3c PO); type: in vivo, Plasmodium cynomolgi; conditions: per monkey
Experimental: To test the causal prophylactic intramuscular potency of the purified isomer of compound 3 and oral potency of two carbamate derivatives of 2-guanidinylimidazolidinedione (4b and 3c) the following assay was conducted.
Fourteen rhesus monkeys were issued.
A donor monkey was inoculated intravenously with 1.3 ml, freshly-thawed frozen infected red blood cell (DA310). When the monkey developed gametocytemia, mosquito feedings were conducted on days 15 and 16 after inoculation. The donor monkey was treated with intramuscular chloroquine hydrochloride (CQ) 10 mg/kg, once a day after the second mosquito feeding and continued for 6 days.
On day 0 of the beginning of the assay, each of the 14 monkeys was inoculated intravenously with 1-ml inoculum of suspension containing about 1.0×10^6 P. cynomolgi sporozoites harvested from Anopheles dirus mosquitoes' salivary glands previously fed on the donor monkey.
All monkeys received treatment on days −1, 0 and 1. The control monkeys (Group 1) received HECT orally and the experimental animals received testing compound intramuscularly (Groups 2 and 3) or orally (Groups 4 to 7).

[2] = Solubility and characteristics of the compounds in the dosing vehicle; type: physicochemical
Plasmodium yoelii (17×) = test: Sporozoite induced test in mouse (causal prophylactic activity); type: in vivo; conditions: sporozoite challenged CD-1 mice; single dose 4 hours before inoculation; oral administration
Experimental: The causal prophylactic antimalarial activity of the new carbamate derivatives were assessed in a sporozoites challenged mouse model according to the following protocol and the results are shown in Table 4 and Table 5.
Each compound was ground with a mortar and pestle and suspended in 0.5% hydroxyethylcellulose and 0.1% Tween 80 for compounds to be administered PO and those given SC were suspended in peanut oil. Each compound is prepared at 3 different dose levels.
Compounds were administered either PO or SC to mice once 4 hours before inoculation of sporozoites.
Four-week-old male CD-1 mice, purchased from Charles River and weighing about 16 to about 17 grams were placed 5 per cage and allowed to acclimate for 4 days before being treated and then inoculated with sporozoites. They were fed food and water ad-lib and maintained at 76° F. with 12 hour light and 12 hour darkness. The cages and water bottles were changed biweekly. The mice are weighed on Days 0, 3 and 6 then biweekly when blood films were taken.
Plasmodium yoelii (17×) was used to infect mice that will be used to infect the mosquitoes.
Mice were given a single dose of test compound 4 hours before being inoculated intraperitoneally with 2.5×10^5 sporozoites of Plasmodium yoelii on Day 0. Whole body weights were taken on Day 0 and Day 6 then twice a week for 31 days. A blood film was taken on Day 5 and then twice a week for 31 days. Mice loosing greater than about 20% of their body weight were sacrificed. All mice alive on Day 31 with no parasites in a blood film were considered cured. Donor mice used to infect the mosquitoes were infected with 2.5×10^4 parasitized erythrocytes. The mosquitoes were allowed to feed on these malaria-infected mice on Day 4 of their infection when the parasitemia was low.
A compound was considered active against either the sporozoite or the EE stage if no parasites were found in the blood films taken on Day 5 or on subsequent blood films taken weekly for 31 days.
Mice alive on Day 31 with no parasites found in any blood films were considered cured.

P. cynomolgi sporozoites [3] = test: Causal prophylactic assay for intramuscular administration in Rhesus monkey; type: in vivo, Plasmodium cynomolgi
Experimental: The causal prophylactic antimalarial activity of the two 2-guanidinylimidazolidinedione carbamates 3c and 4b were assessed against Plasmodium cynomolgi in Rhesus monkey. Two monkeys were used in each test group. The average control animal developed parasitemia is about 10 days after inoculation of about 1×10^6 P. cynomolgi sporozoites harvested from Anopheles dirus.
In order to study the causal prophylactic activity of the 2-guanidinylimidazolidinedione compounds of the present invention, the following assay was conducted. Twelve rhesus monkeys were issued. The monkeys were randomized to 2 control animals and 5 groups of 2 experimental animals each.
A donor monkey was inoculated intravenously with 1.3 ml, freshly-thawed frozen infected red blood cells (DA310). The experiments were conducted in US Army oversea laboratory, AFRIMS, Bankoku, Thailand. When the donor monkey developed gametocytemia, mosquito feedings were conducted on days 13 and 14 after inoculation. The donor monkey was treated with intramuscular chloroquine hydrochloride (CQ) 10 mg/kg, once a day after the second mosquito feeding and continued for 7 days.
On day 0 (beginning of assay), each of the 12 monkeys was inoculated intravenously with 1-ml inoculum of suspension containing about 1.0×10^6 P. cynomolgi sporozoites harvested from Anopheles dirus mosquitoes' salivary glands previously fed on the donor monkey. See Corcoran, K D, et al. (1993) Am. J. Trop. Med. Hyg. 49:473–477, and Shanks, G D, et al. (2001) Clinical Infectious Diseases 33:1968–1974, which are herein incorporated by reference.
All monkeys received treatment on days −1, 0 and 1. The control monkeys received dimethylsulfoxide (DMSO) and the experimental animals received testing compound intramusculary.

P. vivax = conditions: cited from earlier work
Plasmodium falciparum = conditions: cited from earlier work

SMILES: CC(C)N1C(=O)C(=O)N=C1NC(=N)Nc1ccc(Cl)c(Cl)c1 [Compound 3, N-(3,4-dichlorophenyl)-N′-(1-isopropyl-4,5-dioxoimidazolidin-2-ylidene)guanidine]
- Day of Parasitemia (P. cynomolgi sporozoites [1]; 10 mg/kg IM): 8 days
- Result (P. cynomolgi sporozoites [1]; 10 mg/kg IM, 10 mg/kg): not protected; also recorded: No activity
- Day of Parasitemia (P. cynomolgi sporozoites [1]; 30 mg/kg IM, 30 mg/kg): 15 days and 20 days
- Result (delay the parasitemia) (P. cynomolgi sporozoites [1]; 30 mg/kg IM, 30 mg/kg): 7 days and 12 days and did not completely protect the monkeys from malaria
- melting point: 230 °C and 233 °C
- Sediment ([2]; vehicle DMSO, dosage 10 mg/kg): None
- Solubility ([2]; vehicle DMSO, dosage 10 mg/kg): Good
- Supernatant ([2]; vehicle DMSO, dosage 10 mg/kg): Yellow clear
- Sediment ([2]; vehicle DMSO, dosage 30 mg/kg): None
- Solubility ([2]; vehicle DMSO, dosage 30 mg/kg): Moderate
- Supernatant ([2]; vehicle DMSO, dosage 30 mg/kg): Yellow turbid
- Minimum Protective Dose Against P. yoelii (Plasmodium yoelii (17×)): >160 mg/kg

SMILES: CCOC(=O)N=C(N=C1NC(=O)C(=O)N1C(C)C)Nc1ccc(Cl)c(Cl)c1 [Compound 3a, N-(3,4-dichlorophenyl)-N′-ethoxycarbonyl-N″-(1-isopropyl-4,5-dioxo-imidazolidin-2-ylidene)-guanidine]
- melting point: 257 °C
- Minimum Protective Dose Against P. yoelii (Plasmodium yoelii (17×)): 2.5 mg/kg

SMILES: CC(C)N1C(=O)C(=O)NC1=NC(=NC(=O)OC(C)(C)C)Nc1ccc(Cl)c(Cl)c1 [Compound 3c, N-(3,4-dichlorophenyl)-N′-(1-isopropyl-4,5-dioxoimidazolidin-2-ylidene)-N″-(tert-butoxycarbonyl)-guanidine]
- Day of Parasitemia (P. cynomolgi sporozoites [1]; 10 mg/kg PO, 10 mg/kg): 9 days and 10 days
- Result (delay the parasitemia) (P. cynomolgi sporozoites [1]; 10 mg/kg PO, 10 mg/kg): 2 days and 1 days
- Day of Parasitemia (P. cynomolgi sporozoites [1]; 30 mg/kg PO, 30 mg/kg): 10 days and 11 days
- Result (delay the parasitemia) (P. cynomolgi sporozoites [1]; 30 mg/kg PO, 30 mg/kg): 3 days and 2 days
- Sediment ([2]; vehicle DMSO, dosage 10 mg/kg): None
- Solubility ([2]; vehicle DMSO, dosage 10 mg/kg): Good
- Sediment ([2]; vehicle DMSO, dosage 30 mg/kg): None
- Solubility ([2]; vehicle DMSO, dosage 30 mg/kg): Good
- Solubility ([2]; vehicle HECT, dosage 10 mg/kg): Moderate
- Supernatant ([2]; vehicle HECT, dosage 10 mg/kg): Turbid
- Solubility ([2]; vehicle HECT, dosage 30 mg/kg): Moderate
- Supernatant ([2]; vehicle HECT, dosage 30 mg/kg): Turbid
- Minimum Protective Dose Against P. yoelii (Plasmodium yoelii (17×)): 40 mg/kg

SMILES: CC(C)NC(=N)NC1=NC(=O)C(=O)N1c1ccc(Cl)c(Cl)c1 [Compound 4, N-[1-(3,4-dichlorophenyl)-4,5-dioxo-4,5-dihydro-1H-imidazol-2-yl]-N′-isopropylguanidine]
- melting point: 244 °C and 245 °C
- Minimum Protective Dose Against P. yoelii (Plasmodium yoelii (17×)): 5 mg/kg

SMILES: CC(C)COC(=O)N=C(N=C1NC(=O)C(=O)N1c1ccc(Cl)c(Cl)c1)NC(C)C [Compound 4b, N-[1-(3,4-dichlorophenyl)-4,5-dioxo-imidazolidin-2-ylidene]-N′-isopropyl-N″-(isobutyloxycarbonyl)guanidine]
- Day of Parasitemia (P. cynomolgi sporozoites [1]; 10 mg/kg PO): 8 days
- Result (delay the parasitemia) (P. cynomolgi sporozoites [1]; 10 mg/kg PO, 10 mg/kg): not protected; also recorded: No activity
- Day of Parasitemia (P. cynomolgi sporozoites [1]; 30 mg/kg PO): 8 days
- Result (delay the parasitemia) (P. cynomolgi sporozoites [1]; 30 mg/kg PO, 30 mg/kg): not protected; also recorded: No activity
- Sediment ([2]; vehicle DMSO, dosage 10 mg/kg): None
- Solubility ([2]; vehicle DMSO, dosage 10 mg/kg): Good
- Supernatant ([2]; vehicle DMSO, dosage 10 mg/kg): Clear
- Supernatant ([2]; vehicle DMSO, dosage 30 mg/kg): Clear
- Solubility ([2]; vehicle HECT, dosage 10 mg/kg): Moderate
- Supernatant ([2]; vehicle HECT, dosage 10 mg/kg): Turbid
- Solubility ([2]; vehicle HECT, dosage 30 mg/kg): Moderate
- Supernatant ([2]; vehicle HECT, dosage 30 mg/kg): Turbid
- Day of Parasitemia (P. cynomolgi sporozoites [3]; 10 mg/kg IM on days -1, 0 and 1, per monkey, 10 mg/kg): Parasitemia on day 47 and Parasite free on day 100 and 47 day and Remain parasite free
- Result (causal prophylaxis = parasite free for 100 days after treatment) (P. cynomolgi sporozoites [3]; 10 mg/kg IM, 10 mg/kg): protected one monkey; also recorded: Causal prophylaxis; also recorded: Delay the parasitemia
- Delay of parasitemia (P. cynomolgi sporozoites [3]; 10 mg/kg IM, the monkey not protected): 34 days
- Day of Parasitemia (P. cynomolgi sporozoites [3]; 30 mg/kg IM on days -1, 0 and 1, per monkey, 30 mg/kg): stayed parasite free 100 days after treatment; also recorded: Parasite free on day 100; also recorded: Remain parasite free
- Result (causal prophylaxis = parasite free for 100 days after treatment) (P. cynomolgi sporozoites [3]; 30 mg/kg IM, 30 mg/kg): protected; also recorded: Causal prophylaxis
- Protective / prophylactic activity (in words) (P. cynomolgi sporozoites [3]; 10 and 30 mg/kg, intramuscular): partial to complete prophylactic activity; also recorded: protective activity
- Minimum Protective Dose Against P. yoelii (Plasmodium yoelii (17×)): 2.5 mg/kg

SMILES: CC(C)NC(=NC(=O)OCc1ccccc1)N=C1NC(=O)C(=O)N1c1ccc(Cl)c(Cl)c1 [Compound 4d, N-[1-(3,4-dichlorophenyl)-4,5-dioxo-imidazolidin-2-ylidene]-N′-isopropyl-N″-(benzyloxycarbonyl)guanidine]
- melting point: 211 °C
- Minimum Protective Dose Against P. yoelii (Plasmodium yoelii (17×)): 10 mg/kg

SMILES: N=C(N=C1NC(=O)C(=O)N1c1ccc(Cl)c(Cl)c1)Nc1ccc(Cl)c(Cl)c1 [Compound 19, N-(3,4-dichlorophenyl)-N′-[1-(3,4-dichlorophenyl)-4,5-dioxo-imidazolidin-2-ylidene]-guanidine]
- melting point: 220 °C

SMILES: CC(C)NC(=N)NC(=N)Nc1ccc(Cl)c(Cl)c1 [chlorproguanil]
- Activity against primary exoerythrocytic forms (P. vivax): highly active
- Activity against primary exoerythrocytic forms (Plasmodium falciparum): highly active
